Laboratory results published in PubChem BioAssay AID652053 (Broad Institute, 2013).

System: Huh7 psiCHECK-miR122 Renilla luciferase reporter, 48 h
Assay: suppression of miR-122 activity, Renilla luciferase sensor – cell-based, Huh7 psiCHECK-miR122, cherry-pick, dose response (AID 652053)

COc1ccc(NS(=O)(=O)c2cc(NC(=O)COc3ccc(OC)cc3)ccc2N2CCOCC2)cc1
AC40: 2.62 µM

CCOc1cc(C)c(C(C)C)cc1S(=O)(=O)n1ccc(C)n1
AC40: 7.45 µM

O=C1NC(c2cccc3ccccc23)Nc2ccccc21 (stereo unspecified)
AC40: 5.65 µM

COc1ccccc1CN1[C@H](CO)[C@@H]2c3ccccc3N(C(=O)c3ccc(F)cc3)C[C@@H]21
AC40: 30 µM

CC(=O)N1CCSc2ccc(S(=O)(=O)NCCc3ccc(Cl)cc3)cc21
AC40: 4.57 µM

COc1ccc(S(=O)(=O)N(CC(=O)Nc2cc(C)on2)Cc2ccccc2)cc1
AC40: 21.3 µM

Cc1ccc(NS(=O)(=O)c2cc(C(=O)Nc3cccc([N+](=O)[O-])c3)ccc2C)cc1
AC40: 2.5 µM

Cc1c(C(=O)N2CCCCC2)c(S(=O)(=O)Nc2cccc(Br)c2)c(C)n1C
AC40: 1.44 µM

C[C@H](CO)N1C[C@H](C)[C@@H](CN(C)C(=O)Nc2ccc(C(F)(F)F)cc2)Oc2c(NC(=O)C3CCOCC3)cccc2C1=O
AC40: 29.8 µM

COc1ccc(S(=O)(=O)Nc2ccc(F)cc2)cc1N(C)S(=O)(=O)c1ccc(Cl)cc1
AC40: 4.94 µM

Cc1ccc(C)c(NS(=O)(=O)c2cc(C(=O)NCc3ccco3)ccc2C)c1
AC40: 7.68 µM

Cc1ccccc1NC(=O)c1ccc(NS(=O)(=O)c2cc(C(C)(C)C)cc(C)c2C)cc1
AC40: < 0.26 µM

C[C@@H]1CN([C@@H](C)CO)C(=O)c2cc(N(C)C)ccc2O[C@H]1CN(C)Cc1ccc(C(=O)Nc2ccccc2N)cc1
AC40: 9.78 µM

C[C@H]1CN([C@@H](C)CO)S(=O)(=O)c2ccc(C#CCN(C)C)cc2O[C@@H]1CN(C)Cc1ccc2c(c1)OCO2
AC40: 3.68 µM

O=S(=O)(Nc1ccc(C(O)(C(F)(F)F)C(F)(F)F)cc1)c1cccc2cccnc12
AC40: 9.64 µM

O=C(NC1CCCC1)C(c1ccccc1F)N(C(=O)Cc1cccs1)c1ccc2c(c1)OCCO2 (stereo unspecified)
AC40: 25.9 µM

C[C@H](CO)N1C[C@H](C)[C@H](CN(C)CC2CCCCC2)Oc2c(NC(=O)c3cnccn3)cccc2C1=O
AC40: 1.12 µM

COc1cccc(NS(=O)(=O)c2cc(C)sc2C)c1
AC40: 1.43 µM

COc1ccc(NC(=O)Nc2ccc3c(c2)C(=O)N([C@H](C)CO)C[C@@H](C)[C@@H](CN(C)S(=O)(=O)c2ccc(OC)cc2)O3)cc1
AC40: 1.21 µM

N#CC1c2ccccc2-c2ccccc2N1C(=O)c1ccccc1 (stereo unspecified)
AC40: 8.39 µM

C[C@H]1CN([C@@H](C)CO)C(=O)c2cccc(NC(=O)Nc3ccc(C(F)(F)F)cc3)c2O[C@@H]1CN(C)CC1CCCCC1
AC40: 3.47 µM

COc1ccc(-c2nc3ccccn3c2NC2CCCCC2)cc1SC1CCCCC1
AC40: 7.13 µM

COc1ccc(NS(=O)(=O)c2ccc3ccccc3c2)c2ncccc12
AC40: 5.19 µM

O=C(NC(=S)Nc1ccc(S(=O)(=O)NC2CCCCC2)cc1)c1cccs1
AC40: 0.715 µM

CCCCCCNS(=O)(=O)c1ccc(OC)c(OC)c1
AC40: 4.67 µM

CCOc1ccc(S(=O)(=O)Nc2ccc3c(c2)OCO3)c2cccnc12
AC40: < 0.26 µM

COc1ccccc1CNS(=O)(=O)c1ccc(-c2cc(C)no2)cc1
AC40: 10.8 µM

O=C(NCc1cccc(Cl)c1)c1ccc(S(=O)(=O)Nc2cccc(C(F)(F)F)c2)cc1
AC40: 22.5 µM

CCCCOCCCNC(=S)Nc1ccc(S(=O)(=O)N2CCOCC2)cc1
AC40: 11 µM

C[C@H](CO)N1C[C@H](C)[C@@H](CN(C)Cc2ccc(C(F)(F)F)cc2)Oc2c(NC(=O)C3CC3)cccc2C1=O
AC40: 0.387 µM

Cc1ccc(-c2cnc3c(c2)C(=O)N([C@H](C)CO)C[C@@H](C)[C@H](CN(C)Cc2ccccc2F)O3)cc1
AC40: 2.64 µM

Cc1cc(C)c(S(=O)(=O)NC2CC3CCC2C3)c(C)c1 (stereo unspecified)
AC40: 0.6 µM

Cc1nc2cc(NS(=O)(=O)c3c(C)c(C)cc(C)c3C)ccc2s1
AC40: < 0.26 µM

C[C@@H]1CN([C@@H](C)CO)C(=O)c2cccc(NC(=O)c3ccncc3)c2O[C@@H]1CN(C)C
AC40: 12 µM

O=S(=O)(NCC1CCCO1)c1ccc(Cl)c(C(F)(F)F)c1 (stereo unspecified)
AC40: 7.84 µM

CCN1C(=O)c2cccc3c(S(=O)(=O)NCCc4c[nH]c5ccccc45)ccc1c23
AC40: 3.09 µM

O=S(=O)(NCCC1=CCCCC1)c1ccccc1Br
AC40: 2.03 µM

Cc1ccc(NS(=O)(=O)c2ccc3c(c2)n(C)c(=O)n3C)cc1C
AC40: 3.8 µM

COc1ccc(Cl)cc1NS(=O)(=O)c1cc(Cl)ccc1OC
AC40: 4.45 µM

C[C@H](CO)N1C[C@H](C)[C@H](CN(C)Cc2ccc(C(=O)Nc3ccccc3N)cc2)Oc2ccc(NC(=O)Nc3cccc4ccccc34)cc2CC1=O
AC40: 16.9 µM

Cc1ccc(S(=O)(=O)N(C)C[C@H]2Oc3ccc(NC(=O)Nc4ccc(C(F)(F)F)cc4)cc3C(=O)N([C@H](C)CO)C[C@H]2C)cc1
AC40: 5.41 µM

COc1cccc(C2(c3cccc(OC)c3)CC2C(=O)Nc2ccc(F)cc2)c1 (stereo unspecified)
AC40: 2.68 µM

CC(C)(C)c1cc(C(=O)NNc2cccc(Cl)c2)n(Cc2ccccc2)n1
AC40: 4.19 µM

C[C@@H]1CN([C@H](C)CO)C(=O)c2cc(NC(=O)Nc3ccccc3)ccc2O[C@@H]1CN(C)S(=O)(=O)c1ccc(Cl)cc1
AC40: 5.33 µM

Cc1ccc(S(=O)(=O)Nc2ccc3c(c2)CC(=O)N([C@H](C)CO)C[C@@H](C)[C@H](CN(C)Cc2ccc(C(=O)Nc4ccccc4N)cc2)O3)cc1
AC40: 17.2 µM

C[C@H](CO)N1C[C@H](C)[C@@H](CN(C)Cc2ccc(Cl)c(Cl)c2)Oc2c(NS(=O)(=O)c3ccccc3)cccc2C1=O
AC40: 2.54 µM

C[C@@H]1CN([C@H](C)CO)C(=O)c2cccc(NC(=O)C3CCCCC3)c2O[C@@H]1CN(C)Cc1ccc(C(=O)Nc2ccccc2N)cc1
AC40: 6.1 µM

CC(C)NC(=O)Nc1ccc2c(c1)CC(=O)N([C@H](C)CO)C[C@H](C)[C@H](CN(C)Cc1ccc(C(=O)Nc3ccccc3N)cc1)O2
AC40: 14.2 µM

O=C(Nc1ccccc1)N1C[C@H]2[C@@H](c3ccccc31)[C@@H](CO)N2C(=O)c1ccccn1
AC40: 33.7 µM

CC(C)CC#Cc1ccc2c(c1)O[C@H](CN(C)C(=O)Nc1ccccc1F)[C@@H](C)CN([C@@H](C)CO)S2(=O)=O
AC40: 2.15 µM

CNC(=S)Nc1ccc(N2CCCC2)c(S(=O)(=O)Nc2ccc(OC)cc2)c1
AC40: 1.31 µM

C[C@H](CO)N1C[C@H](C)[C@@H](CN(C)Cc2ccc(C(F)(F)F)cc2)Oc2c(NC(=O)c3nc4ccccc4s3)cccc2C1=O
AC40: 2.32 µM

Cc1ccc(OP(=O)(Nc2cccc(C)c2)Oc2ccc(C)cc2)cc1
AC40: 6.66 µM

C[C@H](CO)N1C[C@H](C)[C@H](CN(C)Cc2ccc3c(c2)OCO3)Oc2c(NC(=O)C3CCOCC3)cccc2C1=O
AC40: 10.5 µM

Fc1ccccc1Cn1cc(C(=S)N2CCOCC2)c2ccccc21
AC40: 12.4 µM

COc1cccc(NS(=O)(=O)c2ccc3c(c2)N(C(C)=O)CCO3)c1
AC40: 3.67 µM

C[C@H]1CN([C@@H](C)CO)C(=O)c2cccc(NC(=O)c3ccncc3)c2O[C@@H]1CN(C)CC1CCCCC1
AC40: 7.44 µM

C/C(=N\NC(=O)c1ccccc1O)C1C(=O)c2ccccc2C1=O
AC40: 18.1 µM

COc1ccc(NS(=O)(=O)c2cc(NC(=O)[C@@H](NC(=O)c3ccccc3)C(C)C)ccc2C)cc1
AC40: 2.3 µM

C[C@@H]1CN([C@H](C)CO)C(=O)c2cc(NC(=O)c3ccncc3)ccc2O[C@@H]1CN(C)S(=O)(=O)c1ccc(Cl)cc1
AC40: 1.63 µM

Cc1ccc(NS(=O)(=O)c2cc(C(=O)NCc3ccncc3)ccc2C)cc1
AC40: 2.82 µM

COc1ccc(NP(=O)(Oc2ccc(Cl)cc2)Oc2ccc(Cl)cc2)cc1OC
AC40: 7.43 µM

CCN(CC)S(=O)(=O)c1ccc(C)c(NCC(=O)Nc2ccc(C#N)c(Cl)c2)c1
AC40: 1.77 µM

Cc1cc(C(=O)Nc2cccc3c2O[C@@H](CN(C)CC2CCCCC2)[C@@H](C)CN([C@H](C)CO)C3=O)n(C)n1
AC40: 2.41 µM

Cc1cc(F)ccc1C(O)c1ncc(-c2ccccc2F)[nH]1 (stereo unspecified)
AC40: 5.29 µM

CCOC(=O)c1c(NC(=O)c2ccccc2N(C)S(=O)(=O)c2ccccc2)sc2c1CCCC2
AC40: 13.3 µM

CCOc1cc(N2CCOCC2)c(OCC)cc1NS(=O)(=O)c1ccc(Cl)s1
AC40: 32.9 µM

O=C(Nc1ccc2c(c1)CCC2)c1cc(S(=O)(=O)Nc2ccc(F)cc2)c(Cl)cc1Cl
AC40: 4.1 µM

O=S(=O)(Nc1ccccc1)c1ccc(Oc2ncc(C(F)(F)F)cc2Cl)cc1
AC40: 21.6 µM

CC1CCN(C(=O)CN(c2ccc3c(c2)OCCO3)S(=O)(=O)c2ccccc2)CC1
AC40: 2.51 µM

CN(C)S(=O)(=O)c1ccc(NS(=O)(=O)/C=C/c2ccccc2)cc1
AC40: 2.27 µM

O=C(c1ccc(F)cc1)N1C[C@H]2[C@@H](c3ccccc31)[C@@H](CO)N2C(=O)c1ccccc1
AC40: 17.6 µM

C[C@H](CO)N1C[C@H](C)[C@@H](CN(C)Cc2ccc3c(c2)OCO3)Oc2c(NC(=O)C3CCCCC3)cccc2C1=O
AC40: 5.43 µM

COc1ccc(S(=O)(=O)N2CC[C@@H]3[C@@H](CO)N(C)c4ccc(-c5ccc(F)cc5)cc4[C@@H]32)cc1
AC40: 6.93 µM

C=CCN(CC=C)S(=O)(=O)c1ccc2nc(NC(=O)C(C)C)sc2c1
AC40: 8.29 µM

CC(C)CNS(=O)(=O)c1cc2c3c(c1)CCC(=O)N3CCC2
AC40: 9.58 µM

O=S(=O)(Nc1ccc(C(O)(C(F)(F)F)C(F)(F)F)cc1)c1cccc2ccccc12
AC40: 1.45 µM

CC(=Nc1ccccc1)C1=C(O)C(Cc2cccc(F)c2)NC1=O (stereo unspecified)
AC40: 3.86 µM

Cc1ccc(CN2CCSc3ccc(C(=O)NCc4cccnc4)cc32)cc1
AC40: 10.6 µM

CC(C)CNS(=O)(=O)c1ccc2c(c1)OCCO2
AC40: 5.9 µM

CCOc1cc(S(=O)(=O)Nc2cc(C)cc(C)c2)ccc1Cl
AC40: 1.99 µM

Cc1ccc(C)c(S(=O)(=O)Nc2ccc(C(=O)N3CCOCC3)cc2)c1
AC40: 7.88 µM

O=C(Nc1ccc(S(=O)(=O)NC2CCCCC2)cc1)c1ccc(Br)o1
AC40: 1.66 µM

C[C@@H]1CN([C@@H](C)CO)C(=O)c2cccc(NC(=O)c3ccc(-c4nccs4)cc3)c2O[C@@H]1CN(C)Cc1ccc(C(=O)Nc2ccccc2N)cc1
AC40: 4.9 µM

COc1ccc(S(=O)(=O)NCc2ccccc2)cc1Br
AC40: 5.07 µM

COc1ccc(S(=O)(=O)N(C)C[C@H]2Oc3ccc(NC(=O)Nc4ccc(C(F)(F)F)cc4)cc3C(=O)N([C@H](C)CO)C[C@H]2C)cc1
AC40: 1.81 µM

O=C(NNS(=O)(=O)c1ccc(Cl)cc1)c1cccs1
AC40: 16.6 µM

Cc1ccc(S(=O)(=O)N(C)C[C@H]2Oc3ccc(NC(=O)CCC(F)(F)F)cc3C(=O)N([C@@H](C)CO)C[C@H]2C)cc1
AC40: 12.1 µM

CN1C(=O)c2cc(NC(=O)Cc3ccccc3)ccc2OC[C@@H]2O[C@H](CC(=O)NCc3ccc(Cl)cc3)CC[C@@H]21
AC40: < 0.26 µM

COc1ccc(NS(=O)(=O)c2cc(N)ccc2N2CCOCC2)cc1
AC40: 6.74 µM

C[C@@H]1CN([C@@H](C)CO)C(=O)c2cccc(NC(=O)Nc3ccc(F)cc3)c2O[C@H]1CN(C)Cc1ccc(C(F)(F)F)cc1
AC40: 3.97 µM
